Measurements published in ChEMBL document CHEMBL5120866, “Design and Synthesis of Novel Celastrol Derivatives as Potential Anticancer Agents against Gastric Cancer Cells” (J Nat Prod, 2022).
The source made the active and inactive calls. The calls are words filed in the database; no cut-off is given here.

Columns and labels:
[1] = system: BGC-823; experiment: Induction of ROS generation in human BGC-823 cells assessed as increase in intracellular ROS level incubated for 24 hrs by DCFH-DA staining based fluorescence microscopic analysis; assay type: functional, cell-based; conditions: dose 0.3-0.6 µM, DDE = dose-dependent effect
[2] = system: BGC-823; experiment: Induction of apoptosis in human BGC-823 cells assessed as increase in number of apoptotic cells at 0.15 to 0.6 uM incubated for 24 hrs by Hoechst 33342 staining based flourescence microscopy method; assay type: functional, cell-based; conditions: dose 0.15-0.6 µM
[3] = system: BGC-823; experiment: Induction of mitochondrial dysfunction in human BGC-823 cells assessed as […] by measuring increase in green fluorescence at 0.15 to 0.6 uM incubated for 24 hrs by inverted fluorescent microscopic analysis; assay type: functional, cell-based; conditions: dose 0.15-0.6 µM
[4] = system: HepG2; experiment: Antiproliferative activity against human HepG2 cells assessed as cell growth inhibition incubated for 48 hrs by MTT assay; assay type: functional, cell-based; conditions: HepG2, 48 h
[5] = system: BGC-823; experiment: Induction of apoptosis in human BGC-823 cells assessed as increase in cleaved-caspase 9 expression at 0.15 to 0.6 uM incubated for 24 hrs by Western blot analysis; assay type: functional, cell-based; conditions: dose 0.15-0.6 µM
[6] = system: BGC-823; experiment: Induction of cell cycle arrest in human BGC-823 cells assessed as accumulation of cells at S phase at 0.3 uM incubated for 24 hrs by PI staining based flow cytometry method (reference value: 26.01%); assay type: functional
[7] = system: BGC-823; experiment: Induction of mitochondrial dysfunction in human BGC-823 cells assessed as […] by measuring reduction in red fluorescence at 0.15 to 0.6 uM incubated for 24 hrs by inverted fluorescent microscopic analysis; assay type: functional, cell-based; conditions: dose 0.15-0.6 µM
[8] = system: BGC-823; experiment: Induction of apoptosis in human BGC-823 cells assessed as viable cells at 0.3 uM incubated for 24 hrs by annexin-V-FITC and PI staining based flow cytometry analysis (reference value: 96.3%); assay type: functional; conditions: read-out: Activity
[9] = Toxicity in athymic BALB/c nude mouse assessed as effect on kidney at 1.5 mg/kg, ip measured after 21 days by H and E staining based histopathological analysis; assay type: organism-based; conditions: in vivo, 504 h, time 21 day
[10] = system: BGC-823; experiment: Induction of cell cycle arrest in human BGC-823 cells assessed as accumulation of cells at S phase at 0.6 uM incubated for 24 hrs by PI staining based flow cytometry method (reference value: 26.01%); assay type: functional
[11] = system: BGC-823; experiment: Induction of JNK phosphorylation in human BGC-823 cells at 0.15 to 0.6 uM incubated for 24 hrs by Western blot analysis; assay type: functional, cell-based; conditions: dose 0.15-0.6 µM
[12] = system: HeLa; experiment: Antiproliferative activity against human HeLa cells assessed as cell growth inhibition incubated for 48 hrs by MTT assay; assay type: functional, cell-based
[13] = system: BGC-823; experiment: Antiproliferative activity against human BGC-823 cells assessed as cell growth inhibition at 0.5 uM incubated for 48 hrs by MTT assay relative to control; assay type: functional
[14] = Toxicity in athymic BALB/c nude mouse assessed as effect on heart at 1.5 mg/kg, ip measured after 21 days by H and E staining based histopathological analysis; assay type: organism-based; conditions: in vivo, 504 h, time 21 day
[15] = system: MCF7; experiment: Antiproliferative activity against human MCF7 cells assessed as cell growth inhibition incubated for 48 hrs by MTT assay; assay type: functional, cell-based; conditions: MCF7, 48 h
[16] = system: BGC-823; experiment: Induction of cell cycle arrest in human BGC-823 cells assessed as accumulation of cells at G0/G1 phase at 0.6 uM incubated for 24 hrs by PI staining based flow cytometry method (reference value: 50.66%); assay type: functional
[17] = system: BGC-823; experiment: Induction of cell cycle arrest in human BGC-823 cells assessed as accumulation of cells at G2/M phase at 0.6 uM incubated for 24 hrs by PI staining based flow cytometry method (reference value: 22.86%); assay type: functional
[18] = system: BGC-823; experiment: Induction of apoptosis in human BGC-823 cells assessed as early apoptotic cells at 0.15 uM incubated for 24 hrs by annexin-V-FITC and PI staining based flow cytometry analysis (reference value: 2.4%); assay type: functional
[19] = system: BGC-823; experiment: Induction of cell cycle arrest in human BGC-823 cells assessed as accumulation of cells at G0/G1 phase at 0.3 uM incubated for 24 hrs by PI staining based flow cytometry method (reference value: 50.66%); assay type: functional
[20] = system: BGC-823; experiment: Antiproliferative activity against human BGC-823 cells assessed as cell growth inhibition incubated for 48 hrs by MTT assay; assay type: functional, cell-based; conditions: BGC-823, 48 h
[21] = system: BGC-823; experiment: Upregulation of Bcl-2 family proteins in human BGC-823 cells at 0.15 to 0.6 uM incubated for 24 hrs by Western blot analysis; assay type: functional, cell-based; conditions: dose 0.15-0.6 µM
[22] = system: BGC-823; experiment: Antitumor activity against human BGC-823 cells xenografted in athymic BALB/c nude mouse assessed increase in ROS level in tumor tissue by measuring increase in red fluorescence at 1.5 mg/kg, ip measured after 21 days by DHE staining based fluorescence microscopic analysis; assay type: functional, organism-based; conditions: time 21.0 day
[23] = system: BGC-823; experiment: Antitumor activity against human BGC-823 cells xenografted in athymic BALB/c nude mouse assessed as tumor growth inhibition rate at 1.5 mg/kg, ip measured every 2 days for 21 days by curson caliper method relative to control; assay type: functional; conditions: BGC-823, 504 h, time 21 day, read-out: TGI
[24] = system: BGC-823; experiment: Induction of apoptosis in human BGC-823 cells assessed as viable cells at 0.6 uM incubated for 24 hrs by annexin-V-FITC and PI staining based flow cytometry analysis (reference value: 96.3%); assay type: functional; conditions: read-out: Activity
[25] = system: BGC-823; experiment: Induction of apoptosis in human BGC-823 cells assessed as early apoptotic cells at 0.3 uM incubated for 24 hrs by annexin-V-FITC and PI staining based flow cytometry analysis (reference value: 2.4%); assay type: functional
[26] = system: HCT-116; experiment: Antiproliferative activity against human HCT-116 cells assessed as cell growth inhibition incubated for 48 hrs by MTT assay; assay type: functional, cell-based; conditions: HCT-116, 48 h
[27] = system: BGC-823; experiment: Downregulation of cyclin B1 protein expression in human BGC-823 cells at 0.15 to 0.6 uM incubated for 24 hrs by Western blot analysis; assay type: functional, cell-based; conditions: dose 0.15-0.6 µM
[28] = system: BGC-823; experiment: Induction of apoptosis in human BGC-823 cells assessed as viable cells at 0.15 uM incubated for 24 hrs by annexin-V-FITC and PI staining based flow cytometry analysis (reference value: 96.3%); assay type: functional; conditions: read-out: Activity
[29] = system: BGC-823; experiment: Induction of apoptosis in human BGC-823 cells assessed as early apoptotic cells at 0.6 uM incubated for 24 hrs by annexin-V-FITC and PI staining based flow cytometry analysis (reference value: 2.4%); assay type: functional
[30] = system: BGC-823; experiment: Induction of apoptosis in human BGC-823 cells assessed as late apoptotic cells at 0.6 uM incubated for 24 hrs by annexin-V-FITC and PI staining based flow cytometry analysis (reference value: 0.6%); assay type: functional
[31] = system: BGC-823; experiment: Induction of apoptosis in human BGC-823 cells assessed as late apoptotic cells at 0.15 uM incubated for 24 hrs by annexin-V-FITC and PI staining based flow cytometry analysis (reference value: 0.6%); assay type: functional
[32] = system: BGC-823; experiment: Induction of cell cycle arrest in human BGC-823 cells assessed as accumulation of cells at G0/G1 phase at 0.15 uM incubated for 24 hrs by PI staining based flow cytometry method (reference value: 50.66%); assay type: functional
[33] = Toxicity in athymic BALB/c nude mouse assessed as change in body weight at 1.5 mg/kg, ip measured every 2 days for 21 days; assay type: organism-based; conditions: in vivo, 504 h, time 21 day

**Q.** Which results are given for CCOC(=O)c1cnn(CCCOC(=O)[C@]2(C)CC[C@]3(C)CC[C@]4(C)C5=CC=C6C(=CC(=O)C(O)=C6C)[C@]5(C)CC[C@@]4(C)[C@@H]3C2)c1?
**A.** Activity [1]: Dde; Activity [2]: Active; Activity [3]: Active; IC50 [4]: 350 nM; Activity [5]: Active; Activity [6]: 23.91%; Activity [7]: Active; viability at 0.3 µM [8]: 78.2%; Activity [9]: Non-Toxic; Activity [10]: 24.75%; Activity [11]: Active; IC50 [12]: 480 nM; inhibition at 0.5 µM [13]: > 50%; Activity [14]: Non-Toxic; IC50 [15]: 390 nM; Activity [16]: 37.39%; Activity [17]: 34.73%; Activity [18]: 4.4%; Activity [19]: 46.1%; IC50 [20]: 210 nM; Activity [21]: Active; Activity [22]: Active; inhibition in vivo at 1.5 mg/kg [23]: 89.8%; viability at 0.6 µM [24]: 50.9%; Activity [25]: 16.5%; IC50 [26]: 410 nM; Activity [27]: Active; viability at 0.15 µM [28]: 94.9%; Activity [29]: 26%; Activity [30]: 21.7%; Activity [31]: 0.5%; Activity [32]: 48.17%; Activity [33]: Non-Toxic
